This passage reports IC50 results from US20220163539A1, “NLRP3 INFLAMMASOME INHIBITION” (Inflazome Limited, priority 2019, published 2022).

Test [1] has as its target T1, NLRP3 in NLRP3 over-expressing HEK293 cell lysate supernatants (Homo sapiens, UniProt Q96P20).
T1 construct: expressed in transfected cells; host or cells: HEK293
The test can be described thus: Radioligand binding assay with [3H]-MCC7840, gel filtration. The following applies: 200 nM [3H]-MCC7840, 700 μg protein, 4 hrs at RT; minimum of curve fit constrained; read-out: estimated IC50, competition with [3H]-MCC7840.
Method: As NLRP3 is a cytoplasmic protein a conventional filtration binding assay method could not be used to separate free vs bound radiolabel from cell lysates.
Cell pellets were defrosted over ice and diluted one in two with binding buffer. […] Supernatant was removed and stored at −20° C. Protein determination was performed on these samples using the Pierce BCA kit following the manufacturer's instructions.
Binding buffer volume was dependent on the volume of supernatant used in the assay. Samples were combined together and incubated, with shaking, for 4 hrs @ room temperature.
Briefly, the PD MultiTrap plates were spun down at room temperature (RT), 800 g, for 1 minute to remove the storage buffer. They were washed five times with 300 μl/well binding buffer, 800 g, RT for 1 minute.
80 μl of sample was added per well, spun down at 400 g for 1 minute. 50 μl of the flow through was added to 145 μl Microscint-20 in Optiplates. The plate was shaken for approximately 30 minutes at RT prior to reading in a Perkin Elmer TopCount. Data was analysed using GraphPad Prism.
The specific binding was determined by subtracting the non-specific binding from the total binding.

Test [2] has as its system IL-1β release from THP-1 cells. The test can be described thus: IL-1β release assay in THP-1 cells (LPS and nigericin stimulation). As to conditions: Homo sapiens, THP-1, read-out: IC50 for inhibition of release of IL-1β from THP-1 cells.
From the text: An IL-1β release assay in THP-1 cells was used to assess the ability of the different molecules to inhibit inflammasome-mediated cytokine secretion.

T1 sequence (Q96P20 whole entry): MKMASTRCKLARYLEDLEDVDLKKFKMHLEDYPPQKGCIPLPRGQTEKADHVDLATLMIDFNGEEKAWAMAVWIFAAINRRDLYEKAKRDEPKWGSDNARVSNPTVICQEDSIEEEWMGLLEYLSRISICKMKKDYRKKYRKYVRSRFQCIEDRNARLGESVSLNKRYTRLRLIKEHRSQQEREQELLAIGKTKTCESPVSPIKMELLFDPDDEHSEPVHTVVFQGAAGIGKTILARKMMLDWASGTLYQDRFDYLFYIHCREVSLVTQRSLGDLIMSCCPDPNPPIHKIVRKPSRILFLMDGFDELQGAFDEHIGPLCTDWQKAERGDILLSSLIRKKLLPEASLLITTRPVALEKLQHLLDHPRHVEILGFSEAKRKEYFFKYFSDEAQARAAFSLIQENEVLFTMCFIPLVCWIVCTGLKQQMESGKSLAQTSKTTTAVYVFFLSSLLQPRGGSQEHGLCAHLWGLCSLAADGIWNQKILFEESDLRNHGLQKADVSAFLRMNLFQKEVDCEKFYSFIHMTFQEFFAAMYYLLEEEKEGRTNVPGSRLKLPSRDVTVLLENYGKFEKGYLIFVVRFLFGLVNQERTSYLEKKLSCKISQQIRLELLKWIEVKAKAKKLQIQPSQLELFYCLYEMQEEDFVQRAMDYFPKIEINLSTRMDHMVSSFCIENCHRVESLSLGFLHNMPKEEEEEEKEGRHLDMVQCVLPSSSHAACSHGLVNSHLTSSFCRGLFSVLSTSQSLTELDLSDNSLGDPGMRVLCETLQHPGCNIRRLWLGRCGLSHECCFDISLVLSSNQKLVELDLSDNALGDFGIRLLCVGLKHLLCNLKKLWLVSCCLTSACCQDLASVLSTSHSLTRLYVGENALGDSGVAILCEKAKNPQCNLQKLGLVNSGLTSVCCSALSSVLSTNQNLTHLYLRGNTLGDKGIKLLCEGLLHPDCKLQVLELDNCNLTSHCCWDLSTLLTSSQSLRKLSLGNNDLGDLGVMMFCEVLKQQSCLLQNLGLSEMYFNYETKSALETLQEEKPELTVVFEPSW

Take `Nc1ncnc2c1ncn2[C@@H]1O[C@H](COP(=O)(O)OP(=O)(O)OP(=O)(O)O)[C@@H](O)[C@H]1O` [ATP]: in test [1], the 50% inhibitory concentration (IC50) is 75000 µM.
With `CC(C)(O)c1coc(S(=O)(=O)NC(=O)Nc2c3c(cc4c2CCC4)CCC3)c1` [MCC950], the IC50 in test [2] was found to be 0.027 µM.
On the same count and under the same terms, next, `CC(C)n1ccc(S(=O)(=O)NC(=O)Nc2c3c(cc4c2CCC4)CCC3)n1` [MCC7840]: 0.11 µM.
